Measurements from US10160755B2 (Plexxikon Inc., priority 2015, dated 2018).

Key:
c-Kit = c-Kit (Homo sapiens, UniProt P10721); assay: c-Kit biochemical assay (per US 2007/0032519)
Procedure: The following Table 2 provides data indicating FLT3 ITD, FLT3 D835Y, and KIT biochemical activity, and BaF3 FLT3 ITD/F69L cellular inhibitory activity for exemplary compounds described in this disclosure. In the table below, activity is provided as follows: +++=0.0001<IC50<1 μM; ++=1 μM<IC50<10 μM, +=10 μM<IC50<200 μM. Assays for the biochemical activity of c-Kit and FMS were conducted according to those assays described in US Patent Application Publication number US 2007/0032519, the disclosure of which is hereby incorporated by reference in its entirety.

FLT3-D835Y = target: T1, FLT3-D835Y (Homo sapiens, UniProt P36888, D835Y); assay: FLT3-D835Y biochemical kinase assay (AlphaScreen)
T1 construct: purchased Invitrogen PV3967
T1 sequence (P36888 27-993 D835Y): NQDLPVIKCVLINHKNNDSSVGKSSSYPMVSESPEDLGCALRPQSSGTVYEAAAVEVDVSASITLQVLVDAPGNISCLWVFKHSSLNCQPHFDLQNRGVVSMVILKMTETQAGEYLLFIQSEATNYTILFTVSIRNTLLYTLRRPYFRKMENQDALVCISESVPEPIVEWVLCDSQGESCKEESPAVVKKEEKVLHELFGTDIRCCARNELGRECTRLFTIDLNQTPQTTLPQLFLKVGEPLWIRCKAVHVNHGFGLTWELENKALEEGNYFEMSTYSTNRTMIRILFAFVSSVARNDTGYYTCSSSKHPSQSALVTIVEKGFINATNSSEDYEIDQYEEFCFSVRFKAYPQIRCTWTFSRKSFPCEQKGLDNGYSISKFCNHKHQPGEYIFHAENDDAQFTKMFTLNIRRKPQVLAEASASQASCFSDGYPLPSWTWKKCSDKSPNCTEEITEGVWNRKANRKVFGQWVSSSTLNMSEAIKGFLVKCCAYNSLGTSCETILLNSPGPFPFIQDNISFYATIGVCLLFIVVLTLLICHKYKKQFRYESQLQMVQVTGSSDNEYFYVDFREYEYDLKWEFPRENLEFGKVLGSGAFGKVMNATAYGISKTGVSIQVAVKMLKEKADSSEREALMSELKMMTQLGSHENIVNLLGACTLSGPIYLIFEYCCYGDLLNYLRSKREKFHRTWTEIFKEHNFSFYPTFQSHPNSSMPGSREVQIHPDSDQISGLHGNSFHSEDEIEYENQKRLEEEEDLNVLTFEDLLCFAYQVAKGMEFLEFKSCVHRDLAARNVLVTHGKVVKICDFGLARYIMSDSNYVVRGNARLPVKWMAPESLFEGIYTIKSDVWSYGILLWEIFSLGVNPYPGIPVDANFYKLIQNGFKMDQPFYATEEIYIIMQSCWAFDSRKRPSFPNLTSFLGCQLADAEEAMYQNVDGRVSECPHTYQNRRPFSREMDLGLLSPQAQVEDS
How it was run: (§1)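 Recombinant enzyme phosphorylated biotin-poly(Glu4-Tyr) peptide (30 nM final); ATP final 10 μM for FLT3-D835Y, 100 μM for FLT3-ITD. AlphaScreen read-out: streptavidin donor and anti-phosphotyrosine (PY20) acceptor beads, 20 and 60 min at room temperature; inhibition seen as drop in 580 nm proximity signal; IC50 determined.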

FLT3-ITD = target: T2, FLT3-ITD (Homo sapiens, UniProt P36888); assay: FLT3-ITD biochemical kinase assay (AlphaScreen)
T2 construct: FLT3-ITD; Invitrogen #PV6190
T2 sequence (P36888 1-993): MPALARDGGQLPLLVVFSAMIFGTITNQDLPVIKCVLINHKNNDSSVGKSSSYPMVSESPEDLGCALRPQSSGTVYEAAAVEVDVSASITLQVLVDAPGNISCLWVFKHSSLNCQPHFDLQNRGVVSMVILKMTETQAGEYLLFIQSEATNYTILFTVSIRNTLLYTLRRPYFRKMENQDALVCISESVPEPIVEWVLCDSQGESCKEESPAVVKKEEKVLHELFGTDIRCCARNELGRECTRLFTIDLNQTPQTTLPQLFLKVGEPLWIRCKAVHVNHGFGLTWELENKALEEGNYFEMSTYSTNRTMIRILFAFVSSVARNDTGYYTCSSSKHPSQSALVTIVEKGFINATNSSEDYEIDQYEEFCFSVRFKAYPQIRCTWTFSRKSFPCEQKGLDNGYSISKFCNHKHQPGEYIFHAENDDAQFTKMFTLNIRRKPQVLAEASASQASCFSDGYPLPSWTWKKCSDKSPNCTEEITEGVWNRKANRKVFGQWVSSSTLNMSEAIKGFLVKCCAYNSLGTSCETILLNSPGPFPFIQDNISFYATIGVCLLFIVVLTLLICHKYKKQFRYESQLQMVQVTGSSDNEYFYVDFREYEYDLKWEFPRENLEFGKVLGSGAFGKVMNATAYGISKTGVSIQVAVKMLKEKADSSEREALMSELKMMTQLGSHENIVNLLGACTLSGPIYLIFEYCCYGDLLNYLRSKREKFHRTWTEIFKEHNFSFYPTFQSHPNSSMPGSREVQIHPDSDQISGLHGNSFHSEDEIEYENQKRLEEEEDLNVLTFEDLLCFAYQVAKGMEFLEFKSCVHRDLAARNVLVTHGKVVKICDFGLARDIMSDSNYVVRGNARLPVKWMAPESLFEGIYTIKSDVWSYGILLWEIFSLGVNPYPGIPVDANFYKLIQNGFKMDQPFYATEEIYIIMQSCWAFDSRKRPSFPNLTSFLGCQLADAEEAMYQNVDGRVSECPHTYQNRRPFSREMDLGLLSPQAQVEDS
How it was run: as §1

Chain of c-Kit (P10721 26-976): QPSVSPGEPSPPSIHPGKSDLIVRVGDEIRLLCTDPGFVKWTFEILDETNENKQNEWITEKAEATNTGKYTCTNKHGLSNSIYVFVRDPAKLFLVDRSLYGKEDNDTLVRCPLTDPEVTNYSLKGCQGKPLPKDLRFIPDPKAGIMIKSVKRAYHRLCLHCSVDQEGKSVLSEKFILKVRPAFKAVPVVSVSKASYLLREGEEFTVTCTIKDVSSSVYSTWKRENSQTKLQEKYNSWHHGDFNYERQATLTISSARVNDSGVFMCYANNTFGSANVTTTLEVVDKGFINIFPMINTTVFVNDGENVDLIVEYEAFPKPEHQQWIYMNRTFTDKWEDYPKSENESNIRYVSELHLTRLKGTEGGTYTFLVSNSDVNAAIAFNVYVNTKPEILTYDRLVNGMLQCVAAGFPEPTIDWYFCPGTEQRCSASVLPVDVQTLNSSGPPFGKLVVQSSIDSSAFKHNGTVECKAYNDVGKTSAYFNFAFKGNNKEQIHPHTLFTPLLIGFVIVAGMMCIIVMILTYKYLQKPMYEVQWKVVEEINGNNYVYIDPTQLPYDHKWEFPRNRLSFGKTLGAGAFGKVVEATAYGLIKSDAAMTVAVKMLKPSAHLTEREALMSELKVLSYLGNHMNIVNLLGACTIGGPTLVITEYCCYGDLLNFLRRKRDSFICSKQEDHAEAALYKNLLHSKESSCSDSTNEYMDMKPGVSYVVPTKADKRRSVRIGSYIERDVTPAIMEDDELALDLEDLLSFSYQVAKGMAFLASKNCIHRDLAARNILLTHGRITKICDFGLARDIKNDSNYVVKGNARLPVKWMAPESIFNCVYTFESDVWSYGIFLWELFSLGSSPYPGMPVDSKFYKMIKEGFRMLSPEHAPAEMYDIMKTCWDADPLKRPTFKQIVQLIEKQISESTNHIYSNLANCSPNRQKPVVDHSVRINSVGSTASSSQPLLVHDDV

SMILES | IC50 (c-Kit) [µM] | IC50 (FLT3-D835Y) [µM] | IC50 (FLT3-ITD) [µM]
CNS(=O)(=O)c1cccc(-c2cnc3[nH]cc(-c4ccc5ncn(C)c5c4)c3n2)c1 [P-057, N-methyl-3-[7-(3-methylbenzimidazol-5-yl)-5H-pyrrolo[2,3-b]pyrazin-2-yl]benzenesulfonamide] | 1 to 10 | 0.0001 to 1 | 0.0001 to 1
CC(C)(C)n1cnc2ccc(-c3c[nH]c4ncc(-c5cnc(C(N)=O)c(Cl)c5)nc34)cc21 [P-364, 5-[7-(3-tert-butylbenzimidazol-5-yl)-5H-pyrrolo[2,3-b]pyrazin-2-yl]-3-chloro-pyridine-2-carboxamide] | 1 to 10 | 0.0001 to 1 | 0.0001 to 1
COc1ccc(-c2cnc3[nH]cc(-c4ccc5ncn(C)c5c4)c3c2)cn1 [P-040, 5-(6-methoxy-3-pyridyl)-3-(3-methylbenzimidazol-5-yl)-1H-pyrrolo[2,3-b]pyridine] | 1 to 10 | 0.0001 to 1 | 0.0001 to 1
COc1cnc2[nH]cc(-c3ccc4ncn(CC(F)(F)F)c4c3)c2c1 [P-047, 5-methoxy-3-[3-(2,2,2-trifluoroethyl)benzimidazol-5-yl]-1H-pyrrolo[2,3-b]pyridine] | 1 to 10 | 0.0001 to 1 | 0.0001 to 1
COc1cc(-c2cnc3[nH]cc(-c4ccc5ncn(C)c5c4)c3c2)ccc1C#N [P-117, 2-methoxy-4-[3-(3-methylbenzimidazol-5-yl)-1H-pyrrolo[2,3-b]pyridin-5-yl]benzonitrile] | 1 to 10 | 0.0001 to 1 | 0.0001 to 1
CC(C)(C)n1cnc2ccc(-c3c[nH]c4ncc(-c5cncc(N6CCOCC6)c5)nc34)cc21 [P-387, 4-[5-[7-(3-tert-butylbenzimidazol-5-yl)-5H-pyrrolo[2,3-b]pyrazin-2-yl]-3-pyridyl]morpholine] | 0.0001 to 1 |  | 0.0001 to 1
COc1cc(-c2cnc3[nH]cc(-c4ccc5ncsc5c4)c3n2)ccn1 [P-075, 6-[2-(2-methoxy-4-pyridyl)-5H-pyrrolo[2,3-b]pyrazin-7-yl]-1,3-benzothiazole] | 10 to 200 | 0.0001 to 1 | 
Cc1cc2[nH]cnc2cc1-c1c[nH]c2ncccc12 [P-025, 6-methyl-5-(1H-pyrrolo[2,3-b]pyridin-3-yl)-1H-benzimidazole] | 10 to 200 | 1 to 10 | 
CC(C)(C)n1cnc2ccc(-c3c[nH]c4ncc(-c5cncc(F)c5)nc34)cc21 [P-386, 7-(3-tert-butylbenzimidazol-5-yl)-2-(5-fluoro-3-pyridyl)-5H-pyrrolo[2,3-b]pyrazine] | 1 to 10 |  | 0.0001 to 1
COc1ccc(-c2cnc3[nH]cc(-c4ccc5ncsc5c4)c3n2)cn1 [P-077, 6-[2-(6-methoxy-3-pyridyl)-5H-pyrrolo[2,3-b]pyrazin-7-yl]-1,3-benzothiazole] | 1 to 10 | 0.0001 to 1 | 
COc1cnc2[nH]cc(-c3ccc4ncn(C5CCCCC5)c4c3)c2c1 [P-072, 1-cyclohexyl-6-(5-methoxy-1H-pyrrolo[2,3-b]pyridin-3-yl)benzimidazole] | 1 to 10 | 0.0001 to 1 | 
COc1cnc2[nH]cc(-c3ccc4ncn(C5CCNCC5)c4c3)c2c1 [P-071, 5-methoxy-3-[3-(4-piperidyl)benzimidazol-5-yl]-1H-pyrrolo[2,3-b]pyridine] | 10 to 200 | 0.0001 to 1 | 
COc1cnc2[nH]cc(-c3ccc4ncn(C(C)C)c4c3)c2c1 [P-050, 1-isopropyl-6-(5-methoxy-1H-pyrrolo[2,3-b]pyridin-3-yl)benzimidazole] | 10 to 200 |  | 0.0001 to 1
CNS(=O)(=O)c1ccc(-c2cnc3[nH]cc(-c4ccc5ncsc5c4)c3n2)cc1 [P-078, 4-[7-(1,3-benzothiazol-6-yl)-5H-pyrrolo[2,3-b]pyrazin-2-yl]-N-methyl-benzenesulfonamide] | 10 to 200 | 0.0001 to 1 | 
COc1cnc2[nH]cc(-c3ccc4ncn(C5CCNC5)c4c3)c2c1 (centres unmarked) [P-067, 5-methoxy-3-(3-pyrrolidin-3-ylbenzimidazol-5-yl)-1H-pyrrolo[2,3-b]pyridine] | 10 to 200 | 0.0001 to 1 | 
CC(C)(C)n1cnc2ccc(-c3c[nH]c4ncc(-c5cnc(NS(C)(=O)=O)nc5)nc34)cc21 [P-404, N-[5-[7-(3-tert-butylbenzimidazol-5-yl)-5H-pyrrolo[2,3-b]pyrazin-2-yl]pyrimidin-2-yl]methanesulfonamide] | 1 to 10 |  | 0.0001 to 1
COc1cnc2[nH]cc(-c3ccc4ncn(Cc5ccccc5)c4c3)c2c1 [P-073, 1-benzyl-6-(5-methoxy-1H-pyrrolo[2,3-b]pyridin-3-yl)benzimidazole] | 1 to 10 | 0.0001 to 1 | 
Cc1nn(C)cc1-c1cnc2[nH]cc(-c3ccc4ncn(C(C)(C)C)c4c3)c2n1 [P-324, 7-(3-tert-butylbenzimidazol-5-yl)-2-(1,3-dimethylpyrazol-4-yl)-5H-pyrrolo[2,3-b]pyrazine] | 0.0001 to 1 |  | 0.0001 to 1
COc1cnc2[nH]cc(-c3cc4nc[nH]c4cc3C)c2c1 [P-026, 5-methoxy-3-(6-methyl-1H-benzimidazol-5-yl)-1H-pyrrolo[2,3-b]pyridine] | 10 to 200 | 1 to 10 | 
Nc1n[nH]c2ccc(-c3c[nH]c4ncccc34)cc12 [P-006, 5-(1H-pyrrolo[2,3-b]pyridin-3-yl)-1H-indazol-3-amine] | 1 to 10 |  | 1 to 10
Cc1nn(C)cc1-c1ccc(-c2cnc3[nH]cc(-c4ccc5ncn(C(C)(C)C)c5c4)c3n2)cc1 [P-323, 7-(3-tert-butylbenzimidazol-5-yl)-2-[4-(1,3-dimethylpyrazol-4-yl)phenyl]-5H-pyrrolo[2,3-b]pyrazine] | 1 to 10 |  | 0.0001 to 1
CS(=O)(=O)Nc1ccc(-c2cnc3[nH]cc(-c4ccc5ncsc5c4)c3n2)cc1 [P-076, N-[4-[7-(1,3-benzothiazol-6-yl)-5H-pyrrolo[2,3-b]pyrazin-2-yl]phenyl]methanesulfonamide] | 1 to 10 | 0.0001 to 1 | 
CC(C)(C)n1cnc2ccc(-c3c[nH]c4ncc(-c5cnc(Cl)nc5)nc34)cc21 [P-389, 7-(3-tert-butylbenzimidazol-5-yl)-2-(2-chloropyrimidin-5-yl)-5H-pyrrolo[2,3-b]pyrazine] | 10 to 200 |  | 0.0001 to 1
Cn1cc(-c2cnc3[nH]cc(-c4ccc5ncn(C)c5c4)c3c2)ccc1=O [P-118, 1-methyl-5-[3-(3-methylbenzimidazol-5-yl)-1H-pyrrolo[2,3-b]pyridin-5-yl]pyridin-2-one] | 1 to 10 | 0.0001 to 1 | 
